Results as given in PubChem BioAssay (NCI).
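Test compounds were applied to cells in 96-well plates for 48 hours at 5 doses. Abbreviation: GI50, concentration required for 50% inhibition of growth. TGI: total growth inhibition.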

How the values were obtained:
Assay in all cases: DTP human tumour cell line panel, 48 h
[1] = tested on: NCI-H460 lung
[2] = tested on: MALME-3M melanoma
[3] = tested on: CAKI-1 renal
[4] = tested on: HCT-116 colon
[5] = tested on: NCI-H23 lung
[6] = tested on: 786-0 renal
[7] = tested on: SNB-75 CNS
[8] = tested on: U251 CNS
[9] = tested on: UO-31 renal
[10] = tested on: NCI-H226 lung
[11] = tested on: RPMI-8226 leukemia
[12] = tested on: SF-295 CNS
[13] = tested on: HOP-92 NSCLC
[14] = tested on: SF-268 CNS
[15] = tested on: MOLT-4 leukemia
[16] = tested on: OVCAR-4 ovarian
[17] = tested on: SK-MEL-2 melanoma
[18] = tested on: SK-MEL-5 melanoma
[19] = tested on: A549 NSCLC
[20] = tested on: EKVX NSCLC
[21] = tested on: BT-549 breast
[22] = tested on: OVCAR-3 ovarian
[23] = tested on: OVCAR-8 ovarian
[24] = tested on: T-47D breast
[25] = tested on: HT29 colon
[26] = tested on: UACC-257 melanoma
[27] = tested on: CCRF-CEM leukemia
[28] = tested on: SW-620 colon
[29] = tested on: MDA-MB-435
[30] = tested on: NCI-H522 lung
[31] = tested on: HCC-2998 colon
[32] = tested on: TK-10 renal
[33] = tested on: UACC-62 melanoma
[34] = tested on: RXF 393 renal
[35] = tested on: ACHN renal
[36] = tested on: A498 renal
[37] = tested on: SK-OV-3 ovarian
[38] = tested on: KM12 colon
[39] = tested on: HOP-62 NSCLC
[40] = tested on: DU-145 prostate
[41] = tested on: LOX IMVI melanoma
[42] = tested on: SK-MEL-28 melanoma
[43] = tested on: OVCAR-5 ovarian
[44] = tested on: HS 578T breast
[45] = tested on: K-562 leukemia
[46] = tested on: NCI/ADR-RES ovarian
[47] = tested on: PC-3 prostate
[48] = tested on: HCT-15 colon
[49] = tested on: COLO 205 colon
[50] = tested on: M14 melanoma
[51] = tested on: MDA-MB-231 breast
[52] = tested on: SNB-19 CNS
[53] = tested on: IGROV1 ovarian
[54] = tested on: SF-539 CNS
[55] = tested on: SN12C renal
[56] = tested on: HL-60(TB) leukemia
[57] = tested on: SR leukemia

For `CCOP(=O)(OCC)C(Nc1ccc(C(=O)O)cc1)c1ccc(C(Nc2ccc(C(=O)O)cc2)P(=O)(OCC)OCC)cc1` (centres undefined), the TGI [1] was > 100 µM, the TGI [2] was > 100 µM and the TGI [3] was > 100 µM. For the same compound, the TGI [4] was > 100 µM, the TGI [5] was > 100 µM and the TGI [6] was > 100 µM. For the same compound, the TGI [7] was > 100 µM, the TGI [8] was > 100 µM and the TGI [9] was > 100 µM. The TGI [10] was > 100 µM, the TGI [11] was > 100 µM and the TGI [12] was > 100 µM. For the same compound, the TGI [13] was > 100 µM, the TGI [14] was > 100 µM and the TGI [15] was > 100 µM. For the same compound, the TGI [16] was > 100 µM, the TGI [17] was > 100 µM and the TGI [18] was > 100 µM. For the same compound, the TGI [19] was > 100 µM, the TGI [20] was > 100 µM and the TGI [21] was > 100 µM. For the same compound, the TGI [22] was > 100 µM, the TGI [23] was > 100 µM and the TGI [24] was > 100 µM. The TGI [25] was > 100 µM, the TGI [26] was > 100 µM and the TGI [27] was > 100 µM. For the same compound, the TGI [28] was > 100 µM, the TGI [29] was > 100 µM and the TGI [30] was > 100 µM. For the same compound, the TGI [31] was > 100 µM, the TGI [32] was > 100 µM and the TGI [33] was > 100 µM. The TGI [34] was > 100 µM, the TGI [35] was > 100 µM and the TGI [36] was > 100 µM. The TGI [37] was > 100 µM, the TGI [38] was > 100 µM and the TGI [39] was > 100 µM. The TGI [40] was > 100 µM, the TGI [41] was > 100 µM and the TGI [42] was > 100 µM. For the same compound, the TGI [43] was > 100 µM, the TGI [44] was > 100 µM and the TGI [45] was > 100 µM. The TGI [46] was > 100 µM, the TGI [47] was > 100 µM and the TGI [48] was > 100 µM. For the same compound, the TGI [49] was > 100 µM, the TGI [50] was > 100 µM and the TGI [51] was > 100 µM. The TGI [52] was > 100 µM and the TGI [53] was > 100 µM.
With `Nc1ccccc1C#Cc1ccccc1C#Cc1cnccn1` the GI50 [1] was 7.87 µM, the TGI [1] was 20.5 µM and the GI50 [3] was 14.3 µM. The TGI [3] was 29.2 µM, the GI50 [4] was 17 µM and the TGI [4] was 36.4 µM. The GI50 [54] was 17.1 µM, the TGI [54] was 31.6 µM and the GI50 [5] was 16.8 µM. The TGI [5] was 30.5 µM, the GI50 [6] was 15.3 µM and the TGI [6] was 28.7 µM. It also gave a GI50 [7] of 24.6 µM, a TGI [7] of 84.8 µM and a GI50 [8] of 17.7 µM. For the same compound, the TGI [8] was 32 µM, the GI50 [9] was 12.1 µM and the TGI [9] was 28.1 µM. The GI50 [10] was 17.2 µM, the TGI [10] was 32.8 µM and the GI50 [11] was 14.8 µM. The TGI [11] was 50.2 µM, the GI50 [12] was 11.8 µM and the TGI [12] was 24 µM. It also gave a GI50 [14] of 11.7 µM, a TGI [14] of 25.1 µM and a GI50 [15] of 40.8 µM. The TGI [15] was > 100 µM, the GI50 [16] was 20.6 µM and the TGI [16] was 72.3 µM. The GI50 [18] was 4.6 µM, the TGI [18] was 18 µM and the GI50 [19] was 44.3 µM. For the same compound, the TGI [19] was > 100 µM, the GI50 [20] was 14.1 µM and the TGI [20] was 27.7 µM. The GI50 [21] was 13.7 µM, the TGI [21] was 28.7 µM and the GI50 [22] was 9.79 µM. For the same compound, the TGI [22] was 25.8 µM, the GI50 [23] was 48 µM and the TGI [23] was > 100 µM. It also gave a GI50 [25] of 24.8 µM, a TGI [25] of 53 µM and a GI50 [26] of 35.3 µM. It also gave a TGI [26] of 79.9 µM, a GI50 [55] of 15.2 µM and a TGI [55] of 30 µM. For the same compound, the GI50 [27] was 33.2 µM, the TGI [27] was > 100 µM and the GI50 [28] was 17.3 µM. It also gave a TGI [28] of 31.7 µM, a GI50 [29] of 3.48 µM and a TGI [29] of 13.6 µM. It also gave a GI50 [30] of 9.05 µM, a TGI [30] of 30.2 µM and a GI50 [33] of 14.6 µM. For the same compound, the TGI [33] was 28 µM, the GI50 [34] was 85.4 µM and the TGI [34] was > 100 µM. The GI50 [35] was 24.1 µM, the TGI [35] was 46.2 µM and the GI50 [37] was 22.2 µM. The TGI [37] was 55 µM, the GI50 [56] was 21.5 µM and the TGI [56] was > 100 µM. It also gave a GI50 [38] of 11 µM, a TGI [38] of 23.9 µM and a GI50 [39] of 21.1 µM. The TGI [39] was 54.9 µM, the GI50 [40] was 14.5 µM and the TGI [40] was 28.1 µM. For the same compound, the GI50 [41] was 17 µM, the TGI [41] was 33.7 µM and the GI50 [42] was 17.5 µM. It also gave a TGI [42] of 32 µM, a GI50 [43] of 18.6 µM and a TGI [43] of 43.5 µM. For the same compound, the GI50 [45] was 26.1 µM, the TGI [45] was 93.1 µM and the GI50 [46] was 16.2 µM. The TGI [46] was 37.4 µM, the GI50 [47] was 12.7 µM and the TGI [47] was 27.5 µM. It also gave a GI50 [48] of 16.6 µM, a TGI [48] of 34.6 µM and a GI50 [50] of 16 µM. It also gave a TGI [50] of 29.5 µM, a GI50 [51] of 14.3 µM and a TGI [51] of 29.3 µM. It also gave a GI50 [52] of 20.1 µM and a TGI [52] of 40.5 µM.
`ClCCN(CCCl)c1ccc(CNCCCNCc2ccc(N(CCCl)CCCl)cc2)cc1` was tested, and the TGI [3] was 27.2 µM, the TGI [4] was > 100 µM and the TGI [10] was 30.3 µM. For the same compound, the TGI [11] was > 100 µM, the TGI [13] was 26.6 µM and the TGI [19] was > 100 µM. For the same compound, the TGI [21] was 9.85 µM, the TGI [26] was 4.71 µM and the TGI [27] was > 100 µM. The TGI [28] was > 100 µM, the TGI [31] was 5.2 µM and the TGI [32] was 5.25 µM. It also gave a TGI [36] of 33.8 µM, a TGI [56] of 2.67 µM and a TGI [57] of 1.29 µM. The TGI [40] was > 100 µM, the TGI [42] was 3.18 µM and the TGI [43] was > 100 µM. The TGI [44] was 7.81 µM, the TGI [46] was > 100 µM and the TGI [47] was 26.5 µM. For the same compound, the TGI [49] was 3.29 µM, the TGI [50] was > 100 µM and the TGI [51] was 5.37 µM.
